Earlier results as cited in US20250354118A1, “COMPOSITIONS AND METHODS FOR NK CELL DIFFERENTIATION” (Umoja Biopharma, Inc., priority 2022, published 2025).

Molecular target: PSMA-positive human prostate cancer cells (Homo sapiens, UniProt Q04609)
Conditions: Kularatne et al., Mol Pharm. 2009

Chain of PSMA-positive human prostate cancer cells (Q04609 whole entry): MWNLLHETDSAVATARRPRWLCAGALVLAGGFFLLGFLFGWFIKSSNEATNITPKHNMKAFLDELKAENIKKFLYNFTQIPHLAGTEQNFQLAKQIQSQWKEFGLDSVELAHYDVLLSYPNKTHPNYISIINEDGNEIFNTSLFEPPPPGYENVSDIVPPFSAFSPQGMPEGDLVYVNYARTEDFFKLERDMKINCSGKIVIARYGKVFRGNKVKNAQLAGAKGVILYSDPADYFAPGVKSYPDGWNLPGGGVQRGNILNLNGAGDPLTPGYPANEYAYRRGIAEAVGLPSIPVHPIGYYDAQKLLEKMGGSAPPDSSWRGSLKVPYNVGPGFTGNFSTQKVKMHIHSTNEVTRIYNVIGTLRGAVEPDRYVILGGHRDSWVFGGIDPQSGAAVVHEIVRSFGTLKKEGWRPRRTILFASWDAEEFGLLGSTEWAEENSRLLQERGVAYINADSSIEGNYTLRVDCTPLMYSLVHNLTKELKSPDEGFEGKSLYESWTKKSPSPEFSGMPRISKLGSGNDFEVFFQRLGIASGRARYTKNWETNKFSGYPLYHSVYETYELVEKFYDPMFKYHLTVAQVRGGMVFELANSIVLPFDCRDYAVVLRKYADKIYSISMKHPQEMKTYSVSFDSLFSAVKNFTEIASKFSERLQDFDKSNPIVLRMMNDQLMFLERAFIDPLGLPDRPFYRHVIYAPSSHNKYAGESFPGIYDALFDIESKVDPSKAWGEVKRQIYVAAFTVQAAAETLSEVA

For `O=C(O)CC[C@H](NC(=O)N[C@@H](CCC(=O)O)C(=O)O)C(=O)O` [DUPA], which Kd is on record?
Its Kd is 14 nM.
